Assay results published in PMC9652372, “Glycolytic flux control by drugging phosphoglycolate phosphatase” (Nature Communications, 2022).
Changes are numbered by the printed parent chain. Several values for one entry are separate records, joined by “and”; a condition that tells them apart may be missing. Identical values can stand only once. Entries after “also recorded” stand apart in the source; their conditions may differ.

Key:
[1] = LC-MS quantification of intracellular CP1; type: in vitro ADME, human; conditions: for Abs. CP1 / Abs. Peak Area, CP1 (neg.): PGP-WT, P5
Protocol: Cells (~1 million cells/dish) were rinsed in PBS (37 °C), trypsinized, sedimented at 300 × g, 4 °C for 4 min, washed once in PBS (4 °C), and sedimented again at 300 × g, 4 °C for 4 min. Cell pellets were snap-frozen in liquid nitrogen.
Water-soluble metabolites were extracted with 50 µl ice-cold MeOH/H2O (80/20, v/v) containing 0.01 μM lamivudine. After centrifugation of the resulting homogenates, supernatants were transferred to a RP18 SPE (50 mg/1 mL tubes; Phenomenex) that had been activated with 0.5 mL CH3CN and conditioned with 0.5 mL of MeOH/H2O (80/20, v/v). The eluate of the RP18 SPE-column was evaporated in a SpeedVac (Savant, Thermo Fisher Scientific). Dry sample extracts were redissolved in 75 μL 5 mM NH4OAc in CH3CN/H2O (50/50, v/v). Twenty µL of supernatant were transferred to LC-vials. Metabolites were analyzed by LC-MS using the following settings: 3 μL of each sample was applied to an XBridge Premier BEH Amide (2.5 μm particles, 100 × 2.1 mm) UPLC-column (Waters). Metabolites were separated with Solvent A, consisting of 5 mM NH4OAc in CH3CN/H2O (40/60, v/v) and solvent B consisting of 5 mM NH4OAc in CH3CN/H2O (95/5, v/v) at a flow rate of 200 µL/min at 45 °C by LC using a DIONEX Ultimate 3000 UHPLC system (Thermo Fisher Scientific). A linear gradient starting after 2 min with 100% solvent B decreasing to 10% solvent B within 23 min, followed by 16 min 10% solvent B and a linear increase to 100% solvent B in 2 min was applied. Recalibration of the column was achieved by a 7 min prerun with 100% solvent B before each injection. […] All MS-analyses were performed on a high-resolution Q Exactive mass spectrometer equipped with a HESI probe (Thermo Fisher Scientific) in alternating positive- and negative full MS mode with a scan range of 69.0–1000 m/z at 70 K resolution and the following ESI source parameters: Sheath gas: 30, auxiliary gas: 1, sweep gas: 0, aux gas heater temperature: 120 °C, spray voltage: 3 kV, capillary temperature: 320 °C, S-lens RF level: 50. XIC generation and signal quantitation was performed using TraceFinder v3.3 (Thermo Fisher Scientific) integrating peaks which corresponded to the calculated monoisotopic metabolite masses (MIM + /− H + ± 3 mMU). Analyses of PGP-WT and PGP-KO cells were performed in n = 5 biologically independent experiments.

[2] = target: T1, PGP^P127E (Mus musculus, UniProt Q8CHP8, P127E); conditions: read-out: enzyme activity in presence of CP1 relative to DMSO control (1), mPGP-P127E
T1 sequence (Q8CHP8 1-321 P127E): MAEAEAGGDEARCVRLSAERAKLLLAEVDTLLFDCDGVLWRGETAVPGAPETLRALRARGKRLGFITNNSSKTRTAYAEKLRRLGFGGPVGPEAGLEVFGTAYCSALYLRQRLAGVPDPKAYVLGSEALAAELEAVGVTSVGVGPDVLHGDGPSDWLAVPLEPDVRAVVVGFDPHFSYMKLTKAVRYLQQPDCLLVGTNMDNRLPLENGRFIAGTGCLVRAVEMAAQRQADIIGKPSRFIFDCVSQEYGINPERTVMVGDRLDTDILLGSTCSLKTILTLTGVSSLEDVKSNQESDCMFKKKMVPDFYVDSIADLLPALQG

[3] = system: HT1080 cells; experiment: Lipid droplet staining (perilipin-3); type: cell-based, human
Protocol: Cells were fixed for 15 min with 4% para-formaldehyde, permeabilized and blocked with 0.2% saponin/2% bovine serum albumin (BSA) for 1 hr, and immunostained for 1 hr using α-rabbit TIP47/perilipin 3 antibodies (1:100 dilution, abcam #47638) in 0.2% saponin/1% BSA. Primary antibodies were detected with Alexa Fluor 488-labeled goat anti-rabbit secondary antibodies (1:400; Molecular Probes/Thermo Fisher Scientific), and nuclei were counterstained with DAPI. Cells were mounted with Immu-Mount (Fisher Scientific), and imaged by fluorescence microscopy on a THUNDER imager (THUNDER Imager Live Cell & 3D Cell Culture & 3D Assay system, Leica DMI8; Leica Microsystems), using a 63 × objective and the Leica Application suite X software 3.7.4.23463. To determine the number of lipid droplets per cell, cell borders were defined semi-automatically, and bright objects in this region of interest were counted using the ImagePro-Plus software version 7.0. Statistical significance was assessed using GraphPad Prism 9.4.1 software.

[4] = system: HT1080 cells; experiment: Cell proliferation assay (EdU incorporation); type: cell-based, human
Protocol: Parental HT1080 cells or the indicated CRISPR/Cas9-engineered control (PGP-WT) or PGP-KO cells were grown in complete DMEM. For the expression of PGP-WT or PGP-P127E, cells were transfected with either the pcDNA3 empty vector control or the indicated constructs in pcDNA3 using X-tremeGENE (Roche/Merck), according to the manufacturer’s instructions. […] To assess DNA synthesis, cells were labeled for 2.5 h with 10 μM 5-ethynyl-2'-deoxyuridine (EdU), fixed and permeabilized according to the manufacturer’s recommendations (Click-iT EdU Alexa Fluor 488 imaging kit, Invitrogen/Thermo Fisher). Cells were counterstained with 4′,6-diamidine-2-phenylindole (DAPI), embedded with Fluoromount-G (Thermo Fisher), and imaged on a Nikon TE Eclipse epifluorescence microscope equipped with a 4 × objective and NIS elements software AR 5.02.00. EdU and/or DAPI-positive cells were analyzed using the ImagePro-Plus software version 7.0 (Media Cybernetics). Statistical significance was assessed using GraphPad Prism 9.4.1 software.

[5] = target: T2, PGP^S71R (Mus musculus, UniProt Q8CHP8, S71R); conditions: read-out: enzyme activity in presence of CP1 relative to DMSO control (1), mPGP-S71R, Exp #1-#3
T2 sequence (Q8CHP8 1-321 S71R): T1 sequence (Q8CHP8 1-321 P127E) with S71R, E127P

[6] = target: T3, murine PGP-P127E (Mus musculus, UniProt Q8CHP8, P127E); experiment: Isothermal titration calorimetry, PGP-P127E; type: binding; conditions: ITC
T3 construct: His6 (N, cleaved yes); made in house; host or cells: Escherichia coli BL21 (DE3), pETM-11
T3 sequence (Q8CHP8 1-321 P127E): T1 sequence (Q8CHP8 1-321 P127E)
Protocol: Purified murine PGP-WT or PGP-P127E was dialyzed overnight against ITC buffer (30 mM HEPES, 30 mM NaCl, 5 mM MgCl2, 1 mM tris(2-carboxyethyl)phosphine/TCEP; pH 7.5). All calorimetric measurements were performed at 25 °C on an ITC200 microcalorimeter (GE Healthcare). Experiments were conducted with a fixed concentration of 2% DMSO. […] To reduce the effects of ligand leakage from the syringe during baseline equilibration, the heat release of a single 1.2 μL injection was recorded prior to the actual titration experiment, and discarded during data analysis with Nitpic 2.0.7[45]. To determine background heats of dilution, control experiments of ligand into buffer, buffer into protein and buffer into buffer titrations were performed.

[7] = target: T4, murine PGP (Mus musculus, UniProt Q8CHP8); experiment: IC50 determination, murine PGP, 4-phosphoerythronate (4PE) dephosphorylation; conditions: for M.m PGP on 4-Phosphoerythronate: activity, control = 100
T4 sequence (Q8CHP8 1-321): T1 sequence (Q8CHP8 1-321 P127E) with E127P

[8] = target: T4, murine PGP; experiment: IC50 determination, murine PGP, 2-phospho-L-lactate (2PL) dephosphorylation; conditions: for M.m PGP on 2- Phospho-L-lactate: activity, control = 100
[9] = target: T4, murine PGP; experiment: IC50 determination, murine PGP, glycerol 3-phosphate (G3P) dephosphorylation (EnzChek)

Structure (SMILES): O=C(Nc1ccccc1C(=O)O)c1ccc(Oc2ccc(C(=O)Nc3ccccc3C(=O)O)cc2)cc1 [CP1]
- less CP1 detected than expected ([1]; 100 µM CP1): 39%
- Abs. CP1 ([1]; 3h 33 uM CP1): 0.136 pmol and 0.115 pmol and 0.127 pmol
- Abs. Peak Area, CP1 (neg.) ([1]; 3h 33 uM CP1): 1166078 and 1127449 and 1204353
- Abs. CP1 ([1]; 7h 100 uM CP1): 0.229 pmol and 0.231 pmol and 0.241 pmol
- Abs. Peak Area, CP1 (neg.) ([1]; 7h 100 uM CP1): 2322474 and 2574644 and 2821728
- remaining activity at 32.36 µM ([2]; CP1 log[M] -4.49, Exp #1-#3): 15%
- remaining activity at 15.85 µM ([2]; CP1 log[M] -4.80, Exp #1-#3): 27%
- remaining activity at 7.943 µM ([2]; CP1 log[M] -5.10, Exp #1-#3): 45%
- remaining activity at 3.981 µM ([2]; CP1 log[M] -5.40, Exp #1-#3): 64%
- remaining activity at 1.995 µM ([2]; CP1 log[M] -5.70, Exp #1-#3): 80%
- remaining activity at 1 µM ([2]; CP1 log[M] -6.00, Exp #2-#3): 85%
- remaining activity at 0.5012 µM ([2]; CP1 log[M] -6.30, Exp #1-#3): 81%
- remaining activity at 0.2512 µM ([2]; CP1 log[M] -6.60, Exp #1-#3): 94%
- remaining activity at 0.1259 µM ([2]; CP1 log[M] -6.90, Exp #1-#3): 92%
- lipid droplet (LD) accumulation [3]: time- and concentration-dependent accumulation of LDs; also recorded: effectively increased LDs in PGP-WT but not in PGP-KO cells
- Edu-positive/DAPI-positive cells ([4]; KO C2 CP1 (S)): 47.70% and 42.53% and 47.97%
- Edu-positive/DAPI-positive cells ([4]; WT D5 CP1 (S)): 47.76% and 46.38% and 44.69%
- Edu-positive/DAPI-positive cells ([4]; WT D5 EV CP1 (L)): 8.23% and 14.09% and 6.30%
- remaining activity at 39.81 µM ([5]; CP1 log[M] -4.40): 25%
- remaining activity at 19.95 µM ([5]; CP1 log[M] -4.70): 38%
- remaining activity at 10 µM ([5]; CP1 log[M] -5.00): 50%
- remaining activity at 5.012 µM ([5]; CP1 log[M] -5.30): 68%
- remaining activity at 2.512 µM ([5]; CP1 log[M] -5.60): 81%
- remaining activity at 0.631 µM ([5]; CP1 log[M] -6.20): 95%
- remaining activity at […] ([5]; CP1 log[M] -6.51): 100%
- remaining activity at 0.1549 µM ([5]; CP1 log[M] -6.81): 92%
- n, stoichiometry [6]: 1.15 ± 0.04
- Kd ([6]; […]): 11900 ± 410 nM
- IC50 [7]: 440 ± 60 nM
- M.m PGP on 4-Phosphoerythronate ([7]; CP1 log[M] -5.34679): 4.5082 and 7.8838 and 6.1475
- M.m PGP on 4-Phosphoerythronate ([7]; CP1 log[M] -5.94885): 24.5902 and 29.0456 and 23.7705
- M.m PGP on 4-Phosphoerythronate ([7]; CP1 log[M] -6.24988): 43.8525 and 48.1328 and 39.3443
- M.m PGP on 4-Phosphoerythronate ([7]; CP1 log[M] -6.55091): 54.0984 and 64.3154 and 65.9836
- M.m PGP on 4-Phosphoerythronate ([7]; CP1 log[M] -6.85194): 70.4918 and 82.5726 and 78.6885
- IC50 [8]: 310 ± 30 nM
- M.m PGP on 2- Phospho-L-lactate ([8]; CP1 log[M] -5.04576): 4.1667 and 4.9853 and 5.6548
- M.m PGP on 2- Phospho-L-lactate ([8]; CP1 log[M] -5.52288): 7.7778 and 8.7977 and 9.2262
- M.m PGP on 2- Phospho-L-lactate ([8]; CP1 log[M] -6): 23.0556 and 24.9267 and 23.8095
- M.m PGP on 2- Phospho-L-lactate ([8]; CP1 log[M] -6.47712): 45.5556 and 51.3196 and 45.8333
- M.m PGP on 2- Phospho-L-lactate ([8]; CP1 log[M] -6.95424): 73.3333 and 81.2317 and 78.869
- M.m PGP on 2- Phospho-L-lactate ([8]; CP1 log[M] -7.43136): 88.6111 and 95.3079 and 85.7143
- M.m PGP on 2- Phospho-L-lactate ([8]; CP1 log[M] -7.90849): 96.3889 and 100.293 and 92.8571
- IC50 [9]: 1040 ± 80 nM
- remaining activity at 8 µM ([9]; read-out: M.m PGP on G3P, activity, control = 100, CP1 log[M] -5.09691): 13.8%
- remaining activity at 4 µM ([9]; read-out: M.m PGP on G3P, activity, control = 100, CP1 log[M] -5.39794): 19.5%
- remaining activity at 2 µM ([9]; read-out: M.m PGP on G3P, activity, control = 100, CP1 log[M] -5.69897): 32.5%
- remaining activity at 1 µM ([9]; read-out: M.m PGP on G3P, activity, control = 100, CP1 log[M] -6): 53.8%
- remaining activity at 0.5 µM ([9]; read-out: M.m PGP on G3P, activity, control = 100, CP1 log[M] -6.30103): 80%
- remaining activity at […] ([9]; read-out: M.m PGP on G3P, activity, control = 100, CP1 log[M] -6.60206): 91.2%
- remaining activity at 0.125 µM ([9]; read-out: M.m PGP on G3P, activity, control = 100, CP1 log[M] -6.90309): 96.2%
- remaining activity at 0.0625 µM ([9]; read-out: M.m PGP on G3P, activity, control = 100, CP1 log[M] -7.20412): 98.8%
- remaining activity at 0.03125 µM ([9]; read-out: M.m PGP on G3P, activity, control = 100, CP1 log[M] -7.50515): 91.2%
